Data: patent US20150313892A1, “PHARMACEUTICAL COMPOSITIONS FOR TREATING PAIN ASSOCIATED WITH DYSMENORRHEA” (priority 2014, published 2015)
Like-named read-outs stand apart in the source and are kept apart here.

Assays:
NE reuptake = NE reuptake (Homo sapiens, UniProt P23975)
κ-opioid = κ-opioid (Homo sapiens, UniProt P41145); conditions: read-out: Binding Constant Ki, κ-opioid; cited from earlier work
[1] = in vivo, po; cited from earlier work
[2] = test system: patients with diabetic neuropathy and fibromyalgia; experiment: Pain relief in diabetic neuropathy and fibromyalgia patients; conditions: 400 mg per day, alone
δ-opioid = δ-opioid (Homo sapiens, UniProt P41143); conditions: read-out: Binding Constant Ki, δ-opioid; cited from earlier work
[3] = test system: chronic sciatic nerve constriction injury; conditions: chronic sciatic nerve constriction injury in rats; cited from earlier work
Sigma = conditions: read-out: Binding Constant Ki, Sigma; cited from earlier work
NMDA = conditions: cited from earlier work
μ-opioid = μ-opioid (Homo sapiens, UniProt P35372); conditions: read-out: Binding Constant Ki, μ-opioid; cited from earlier work
5-HT reuptake = 5-HT reuptake (Homo sapiens, UniProt P31645); conditions: read-out: Binding Constant Ki, 5-HT, cited from earlier work
α2δ = conditions: read-out: α2δ Binding; cited from earlier work
[4] = test system: cellular uptake of dopamine, noradrenaline, or serotonin; conditions: cited from earlier work
[5] = cited from earlier work
[6] = test system: uptake of norepinephrine (NE), serotonin (5-HT) and dopamine; conditions: cited from earlier work
[7] = test system: α or β adrenergic, muscarinic, histaminergic, and dopaminergic receptors; conditions: cited from earlier work
[8] = test system: patients with postherpetic neuralgia or painful diabetic neuropathy; conditions: oral, cited from earlier work
[9] = test system: transient K^+ channels in hippocampal neurons; conditions: read-out: IC50, inhibition of transient K+ channels; cited from earlier work
postoperative patients = conditions: intravenous; 30-mg/kg bolus, 10 mg/kg/h infusion for 48 hours; cited from earlier work
[10] = test system: patients with neuropathic pain associated with diabetic peripheral neuropathy; conditions: diabetic peripheral neuropathy trials; cited from earlier work
[11] = test system: patients with fibromyalgia; conditions: fibromyalgia trials, cited from earlier work
patients, pain score = conditions: cited from earlier work
[12] = test system: persons undergoing third molar surgery; conditions: cited from earlier work
[13] = reuptake inhibition; read-out: Binding Constant Ki, NE; cited from earlier work
[14] = read-out: Binding Constant Ki, NMDA
[15] = read-out: Binding Constant Ki, NE; reuptake inhibition; cited from earlier work

δ-opioid, sequence (P41143 whole entry): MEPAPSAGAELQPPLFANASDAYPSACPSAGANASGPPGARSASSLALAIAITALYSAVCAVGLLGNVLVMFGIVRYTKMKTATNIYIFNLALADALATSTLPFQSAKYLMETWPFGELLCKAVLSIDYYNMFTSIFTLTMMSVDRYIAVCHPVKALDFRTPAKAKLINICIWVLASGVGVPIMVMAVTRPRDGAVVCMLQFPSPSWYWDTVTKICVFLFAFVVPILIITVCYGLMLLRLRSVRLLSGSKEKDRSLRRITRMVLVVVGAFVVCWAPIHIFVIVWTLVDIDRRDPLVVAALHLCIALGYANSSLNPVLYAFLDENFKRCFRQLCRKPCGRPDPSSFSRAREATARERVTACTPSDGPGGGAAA
κ-opioid, sequence (P41145 whole entry): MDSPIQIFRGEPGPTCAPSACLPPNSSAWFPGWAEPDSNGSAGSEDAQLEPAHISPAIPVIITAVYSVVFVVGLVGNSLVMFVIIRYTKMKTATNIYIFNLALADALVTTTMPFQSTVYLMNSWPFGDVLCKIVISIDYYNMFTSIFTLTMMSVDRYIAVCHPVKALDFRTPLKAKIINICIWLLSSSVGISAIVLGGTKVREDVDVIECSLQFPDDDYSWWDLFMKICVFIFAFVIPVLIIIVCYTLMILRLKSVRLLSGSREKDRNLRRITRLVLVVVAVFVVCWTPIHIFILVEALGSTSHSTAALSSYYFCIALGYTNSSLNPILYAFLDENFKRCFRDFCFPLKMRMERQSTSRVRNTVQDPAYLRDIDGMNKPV
NE reuptake, sequence (P23975 whole entry): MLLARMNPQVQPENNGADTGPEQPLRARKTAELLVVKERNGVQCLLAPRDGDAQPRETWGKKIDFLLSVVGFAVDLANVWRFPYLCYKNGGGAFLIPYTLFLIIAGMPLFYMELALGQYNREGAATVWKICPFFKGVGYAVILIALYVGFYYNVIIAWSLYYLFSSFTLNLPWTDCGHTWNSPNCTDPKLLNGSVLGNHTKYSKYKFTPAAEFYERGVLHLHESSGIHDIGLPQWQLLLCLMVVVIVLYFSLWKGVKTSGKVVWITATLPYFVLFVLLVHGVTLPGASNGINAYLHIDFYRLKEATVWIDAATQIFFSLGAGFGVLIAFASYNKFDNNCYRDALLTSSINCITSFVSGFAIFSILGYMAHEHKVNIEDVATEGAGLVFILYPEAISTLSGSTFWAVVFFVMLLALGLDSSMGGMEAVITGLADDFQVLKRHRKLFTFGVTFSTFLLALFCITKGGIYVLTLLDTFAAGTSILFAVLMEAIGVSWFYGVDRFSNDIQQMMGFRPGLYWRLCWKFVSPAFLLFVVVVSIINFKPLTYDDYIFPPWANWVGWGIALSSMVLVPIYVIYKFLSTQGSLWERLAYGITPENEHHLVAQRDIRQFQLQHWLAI
5-HT reuptake, sequence (P31645 whole entry): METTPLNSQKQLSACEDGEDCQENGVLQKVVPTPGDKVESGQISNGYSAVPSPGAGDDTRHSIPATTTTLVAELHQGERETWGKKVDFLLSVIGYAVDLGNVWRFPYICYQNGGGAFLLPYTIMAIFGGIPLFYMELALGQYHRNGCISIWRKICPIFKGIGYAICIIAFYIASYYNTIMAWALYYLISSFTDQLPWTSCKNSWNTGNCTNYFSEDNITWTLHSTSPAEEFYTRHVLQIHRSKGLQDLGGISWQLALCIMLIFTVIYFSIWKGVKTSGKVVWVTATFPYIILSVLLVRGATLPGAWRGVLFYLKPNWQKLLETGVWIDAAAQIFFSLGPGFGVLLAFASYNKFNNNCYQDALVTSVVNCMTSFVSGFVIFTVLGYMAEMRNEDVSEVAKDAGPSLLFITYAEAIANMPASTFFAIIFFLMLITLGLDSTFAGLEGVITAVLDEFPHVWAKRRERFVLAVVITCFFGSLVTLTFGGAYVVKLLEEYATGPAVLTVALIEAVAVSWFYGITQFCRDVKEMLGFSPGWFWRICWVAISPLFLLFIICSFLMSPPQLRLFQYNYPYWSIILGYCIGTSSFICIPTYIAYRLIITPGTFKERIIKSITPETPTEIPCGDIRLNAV
μ-opioid, sequence (P35372 whole entry): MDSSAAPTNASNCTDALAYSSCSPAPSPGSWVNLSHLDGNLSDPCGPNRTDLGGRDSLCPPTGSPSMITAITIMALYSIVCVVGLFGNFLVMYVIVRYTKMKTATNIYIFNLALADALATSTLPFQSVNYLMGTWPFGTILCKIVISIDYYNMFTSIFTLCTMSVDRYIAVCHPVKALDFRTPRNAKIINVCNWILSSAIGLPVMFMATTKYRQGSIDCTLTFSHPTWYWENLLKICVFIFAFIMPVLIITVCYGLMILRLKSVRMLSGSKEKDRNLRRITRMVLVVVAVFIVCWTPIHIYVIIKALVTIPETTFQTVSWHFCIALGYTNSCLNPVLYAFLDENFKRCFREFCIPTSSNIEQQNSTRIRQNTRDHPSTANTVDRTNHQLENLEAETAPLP

## COc1cccc(C2(O)CCCCC2CN(C)C)c1 (racemic) [(±) Tramadol, (+/−)-trans(RR,SS)-2-[(di-methylamino)methyl]-1-(3-methoxyphenyl)cyclohexanol]
NE reuptake; [13]
  Ki: 785 nM
κ-opioid
  Ki: 42700 nM
[1]
  duration of the analgesic effect: about 6 hours
[2]
  reduction in pain: 30-40%
δ-opioid
  Ki: 57700 nM

## COc1ccc(C(CN(C)C)C2(O)CCCCC2)cc1 (racemic) [Venlafaxine, (R/S)-1-[2-(dimethylamino)-1-(4-methoxyphenyl)ethyl]cyclohexanol]
[3]
  reversing chronic neuropathic pain secondary to thermal hyperalgesia; hyperalgesia of neuropathic pain: effective

## COc1ccc2c(c1)[C@@]13CCCC[C@H]1[C@@H](C2)N(C)CC3 [Dextromethorphan, (+)-3-methoxy-N-methylmorphinan]
Sigma
  Ki: 365 nM
NMDA; [14]
  Ki: 2910 nM
δ-opioid
  Ki: 11500 nM
μ-opioid
  Ki: 1280 nM

## CN1CC[C@@]23CCCC[C@@H]2[C@@H]1Cc1ccc(O)cc13 [Dextrorphan]
NE reuptake; [15]
  Ki: 340 nM
κ-opioid
  Ki: 5950 nM
5-HT reuptake; reuptake inhibition
  Ki: 401 nM
δ-opioid
  Ki: 34700 nM

## NCC1(CC(=O)O)CCCCC1 [Gabapentin]
α2δ
  Ki: 59 nM
[4]
  cellular uptake of dopamine, noradrenaline, or serotonin: did not alter
[5]; 900 mg/day given in 3 divided doses
  Bioavailability: approximately 60%
[5]; 1200 mg/day given in 3 divided doses
  Bioavailability: ~47%
[5]; 2400 mg/day given in 3 divided doses
  Bioavailability: ~34%
[5]; 3600 mg/day given in 3 divided doses
  Bioavailability: ~33%
[5]; 4800 mg/day given in 3 divided doses
  Bioavailability: ~27%
[5]; after 150 mg intravenous administration, Mean±SD
  apparent volume of distribution: 58 ± 6 L
[5]; food effect
  increase in AUC and Cmax with food: 14%
[5]; in vivo
  bound to plasma protein: Less than 3%
  metabolism in humans: not appreciably metabolized
[5]; patients with epilepsy
  steady-state predose (Cmin) concentration in cerebrospinal fluid, of corresponding plasma concentration: approximately 20%
[5]; unaltered by dose or multiple dosing
  elimination half-life: 5 to 7 h

## CN1CC[C@]23CCCC[C@H]2[C@H]1Cc1ccc(O)cc13 [Levorphanol]
NE reuptake; [15]
  Ki: 1210 nM
κ-opioid
  Ki: 4.2 nM
5-HT reuptake
  Ki: 86.3 nM
δ-opioid
  Ki: 3.61 nM

## CCN(CC)C(=O)C1(c2ccccc2)CC1CN (centres unmarked) [Milnacipran]
NMDA; [14]
  Ki: 6300 nM
[6]
  uptake of dopamine: does not affect
[7]
  affinity for α or β adrenergic, muscarinic, histaminergic, and dopaminergic receptors: no affinity

## CN(C)CCC=C1c2ccccc2CCc2ccccc21 [amitriptyline]
[8]; painful diabetic neuropathy
  patients with good or moderate response: three-quarters
[8]; postherpetic neuralgia
  patients with good or moderate response: about two-thirds

## CN(C)CCCN1c2ccccc2CCc2ccccc21 [imipramine]
[9]
  IC50: ~6000 nM

## [Mg] [magnesium]
Postoperative patients
  use of narcotics in postoperative patients: reduced the use of narcotics

## CC(C)C[C@H](CN)CC(=O)O [pregabalin]
[10]
  discontinuation due to dizziness: 3%
  discontinuation due to somnolence: 2%
  patients discontinued prematurely due to adverse reactions: 9%
  withdrawal due to asthenia, confusion, and peripheral edema, each: approximately 1%
[11]; 150-600 mg/day
  patients discontinued prematurely due to adverse reactions: 19%
[11]
  discontinuation due to dizziness: 6%
  discontinuation due to somnolence: 3%
  withdrawal due to fatigue, headache, balance disorder, and weight increased, each: approximately 1%
patients, pain score; 8-week study, 50 and 100 mg three times a day vs placebo
  endpoint mean pain score (proportion with at least 50% reduction in pain score increased): statistically significantly improved
patients, pain score; 8-week study, 100 or 200 mg three times a day vs placebo, by creatinine clearance
  endpoint mean pain score (proportion with at least 50% reduction in pain score increased): statistically significantly improved
patients, pain score; 13-week study, 75, 150, 300 mg twice daily vs placebo, creatinine clearance greater than 60 mL/min, all doses
  endpoint mean pain score (proportion with at least 50% reduction in pain score increased): statistically significantly improved
patients, pain score; 100 and 200 mg three times a day
  endpoint mean pain score (proportion with at least 50% reduction in pain score increased): statistically significantly improved

## N[C@@H](Cc1c[nH]c2ccccc12)C(=O)O [tryptophan]
[12]
  effect on post-operative pain or on the consumption of other analgesics: no effect

## O-desmethyltramadol [(±) M1]
NE reuptake; [13]
  Ki: 1520 nM
κ-opioid
  Ki: 242 nM
NMDA; [14]
  Ki: > 16000 nM
